# Results taken from PMC8967249, “Discovery of Novel HPK1 Inhibitors Through Structure-Based Virtual Screening” (Frontiers in Pharmacology, 2022).
# Read-outs that look alike come from different tables or passages of the source.
# Experiments:
# [1] = molecular target: T1, HPK1 kinase (Homo sapiens, UniProt Q92918); assay: In vitro HPK1 kinase inhibition assay (Caliper mobility shift assay); conditions: for inhibition at 50 µM: read-out: Inhibition (%) 50 μM, 50 μM, duplicate, mean ± SD
# Procedure: The mixture was centrifuged at 1,000 rpm for 30 s and then mixed and incubated at room temperature for 10 min. […] The plate was incubated at room temperature for 2 h. Finally, 30 μL terminated buffer was added to terminate the kinase reaction. Conversion rate data were read with Caliper EZ ReaderⅡ. The IC50 values of concentration-dependent curves were fitted by GraphPad Prism 6.0.
# [2] = system: HPK1; parameters: method as in Wu et al. (2019); conditions: ref Wu et al. (2019); cited from earlier work
# [3] = molecular target: WT HPK1 kinase; parameters: method as in Johnson et al. (2019); conditions: WT HPK1 kinase in vitro; ref Johnson et al. (2019); read-out: inhibition constant (Ki); cited from earlier work
# [4] = molecular target: T1, HPK1 kinase; parameters: purchased Invitrogen PV6357; method as in Yu et al. (2021); conditions: ref Yu et al. (2021); cited from earlier work
# [5] = system: SLP76; parameters: method as in Yu et al. (2021); conditions: SLP76 PBMC assay; ref Yu et al. (2021); cited from earlier work
# T1 sequence (Q92918 whole entry): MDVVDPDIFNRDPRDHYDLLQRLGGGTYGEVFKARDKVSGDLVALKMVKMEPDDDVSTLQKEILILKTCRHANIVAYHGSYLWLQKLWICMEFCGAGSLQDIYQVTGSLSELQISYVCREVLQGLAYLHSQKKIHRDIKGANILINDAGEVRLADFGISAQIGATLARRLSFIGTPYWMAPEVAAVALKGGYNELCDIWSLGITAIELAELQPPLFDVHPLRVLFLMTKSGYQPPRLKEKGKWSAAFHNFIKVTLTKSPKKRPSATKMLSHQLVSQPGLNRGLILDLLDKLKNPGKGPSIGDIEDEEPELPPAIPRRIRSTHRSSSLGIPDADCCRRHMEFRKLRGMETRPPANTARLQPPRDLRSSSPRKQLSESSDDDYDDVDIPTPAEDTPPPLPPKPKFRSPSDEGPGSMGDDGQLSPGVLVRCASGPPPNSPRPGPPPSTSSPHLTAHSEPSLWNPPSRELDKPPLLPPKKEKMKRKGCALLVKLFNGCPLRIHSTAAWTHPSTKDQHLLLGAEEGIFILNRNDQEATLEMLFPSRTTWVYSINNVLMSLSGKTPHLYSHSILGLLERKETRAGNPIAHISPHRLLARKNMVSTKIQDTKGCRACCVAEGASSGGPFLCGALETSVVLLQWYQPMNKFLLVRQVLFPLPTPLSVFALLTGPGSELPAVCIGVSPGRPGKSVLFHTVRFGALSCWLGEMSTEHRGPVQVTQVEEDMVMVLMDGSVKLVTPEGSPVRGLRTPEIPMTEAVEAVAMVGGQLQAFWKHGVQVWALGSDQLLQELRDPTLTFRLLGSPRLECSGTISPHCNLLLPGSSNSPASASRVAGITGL
smiles,measurement,setting,value
O=C1Nc2ccc(Cl)cc2/C1=N/NC(=O)c1cc(Br)ccc1O [2395-0114],IC50,[1],9590 ± 460 nM
Cc1cccc(NC(=O)c2n[nH]c3ccccc23)c1 [8016-1815],IC50,[1],7550 ± 560 nM
same,inhibition at 50 µM,[1],> 60%
CC(C)n1ncc2cnc(Nc3cc(C4CCNC4)nc(N4CCC(F)(F)C4)n3)cc21 (centres unmarked) [GNE-1858],IC50,[2],1.9 nM
O=C1CCc2cc(NC(=O)c3n[nH]c4ccccc34)ccc2N1 [M074-2865],IC50,[1],2930 ± 90 nM
CCN(CC)CCNC(=O)c1c(C)[nH]c(/C=C2\C(=O)Nc3ccc(F)cc32)c1C [Sunitinib],Ki,[3],~10 nM
CCCC[C@@H](CC)CNC(=O)c1ccc(N/N=C2\C(=O)Nc3ccccc32)cc1 [V014-4726],IC50,[1],14300 ± 1070 nM
same,inhibition at 50 µM,[1],> 60%
Cc1cc(C)c2c(c1)/C(=N/Nc1ccc(C(=O)N3CCC[C@@H]3C)cc1)C(=O)N2 [V030-2005],IC50,[1],9490 ± 540 nM
COc1cccc(F)c1-c1cc2c(cn1)cnn2-c1cccc(N2CCN(C)CC2)n1 [XHS],IC50,[4],2.6 nM
same,IC50,[5],600 nM
